Source: ChEMBL document CHEMBL3351789, “Triazolopyridines as selective JAK1 inhibitors: from hit identification to GLPG0634” (J Med Chem, 2014)
Activity calls are given as the source filed them. The rule behind the calls is not given here.

Columns and labels:
[1] = Kinetic solubility of the compound at pH 7.4; conditions: buffer
[2] = Plasma protein binding in rat
[3] = Cmax in rat at 5 mg/kg, po; assay type: ADME, organism-based; set-up: dose 5 mg/kg, route oral; conditions: in vivo
[4] = Tmax in rat at 5 mg/kg, po; assay type: ADME, organism-based; set-up: dose 5 mg/kg, route oral; conditions: in vivo
[5] = AUC (0 to infinity) in rat at 1 mg/kg, iv; assay type: ADME, organism-based; set-up: time infinity, dose 1 mg/kg, route intravenous; conditions: plasma
[6] = AUC (0 to infinity) in rat at 5 mg/kg, po; assay type: ADME, organism-based; set-up: time infinity, dose 5 mg/kg, route oral; conditions: plasma
[7] = Half life in rat at 1 mg/kg, iv; assay type: ADME, organism-based; set-up: dose 1 mg/kg, route intravenous; conditions: in vivo
[8] = Half life in rat at 5 mg/kg, po; assay type: ADME, organism-based; set-up: dose 5 mg/kg, route oral; conditions: in vivo
[9] = Cmax in dog at 1 mg/kg, iv; assay type: ADME, organism-based, Canis lupus familiaris; set-up: dose 1 mg/kg, route intravenous; conditions: in vivo
[10] = Cmax in dog at 5 mg/kg, po; assay type: ADME, organism-based, Canis lupus familiaris; set-up: dose 5 mg/kg, route oral; conditions: in vivo
[11] = Tmax in dog at 5 mg/kg, po; assay type: ADME, organism-based, Canis lupus familiaris; set-up: dose 5 mg/kg, route oral; conditions: in vivo
[12] = AUC (0 to infinity) in dog at 1 mg/kg, iv; assay type: ADME, organism-based, Canis lupus familiaris; set-up: time infinity, dose 1 mg/kg, route intravenous; conditions: plasma
[13] = AUC (0 to infinity) in dog at 5 mg/kg, po; assay type: ADME, organism-based, Canis lupus familiaris; set-up: dose 5 mg/kg, route oral, time infinity; conditions: plasma
[14] = Clearance in dog at 1 mg/kg, iv; assay type: ADME, organism-based, Canis lupus familiaris; set-up: dose 1 mg/kg, route intravenous; conditions: in vivo
[15] = Volume of distribution at steady state in dog at 1 mg/kg, iv; assay type: ADME, organism-based, Canis lupus familiaris; set-up: dose 1 mg/kg, route intravenous; conditions: in vivo, read-out: Vdss
[16] = Half life in dog at 1 mg/kg, iv; assay type: ADME, organism-based, Canis lupus familiaris; set-up: dose 1 mg/kg, route intravenous; conditions: in vivo
[17] = Half life in dog at 5 mg/kg, po; assay type: ADME, organism-based, Canis lupus familiaris; set-up: dose 5 mg/kg, route oral; conditions: in vivo
[18] = Oral bioavailability in dog at 1 mg/kg, iv and 5 mg/kg; assay type: ADME, organism-based, Canis lupus familiaris; conditions: in vivo
[19] = Metabolic stability in rat liver microsomes assessed as compound remaining after 60 mins; assay type: ADME; conditions: read-out: Stability
[20] = Metabolic stability in dog liver microsomes assessed as compound remaining after 60 mins; assay type: ADME, Canis lupus familiaris; conditions: read-out: Stability
[21] = Metabolic stability in human liver microsomes assessed as compound remaining after 60 mins; assay type: ADME; conditions: read-out: Stability
[22] = Half life in rat hepatocytes; assay type: ADME, cell-based, Hepatocyte
[23] = Half life in dog hepatocytes; assay type: ADME, cell-based, Canis lupus familiaris, Hepatocyte
[24] = Half life in human hepatocytes; assay type: ADME, cell-based, Hepatocyte
[25] = Permeability across apical to basolateral side in human Caco2 cells; assay type: ADME, cell-based; conditions: caco-2
[26] = Thermodynamic solubility in aqueous buffer solution at pH 3; assay type: physicochemical
[27] = Thermodynamic solubility in aqueous buffer solution at pH 7.4; assay type: physicochemical
[28] = Plasma protein binding in dog; assay type: ADME, cell-free, Canis lupus familiaris; conditions: read-out: PPB (converted)
[29] = Plasma protein binding in human; assay type: ADME, cell-free; conditions: read-out: PPB (converted)
Cytochrome P450 1A2 = Cytochrome P450 1A2 (Homo sapiens, UniProt P05177); test: Inhibition of CYP1A2 (unknown origin); assay type: ADME
Cytochrome P450 1A2, sequence (P05177 whole entry): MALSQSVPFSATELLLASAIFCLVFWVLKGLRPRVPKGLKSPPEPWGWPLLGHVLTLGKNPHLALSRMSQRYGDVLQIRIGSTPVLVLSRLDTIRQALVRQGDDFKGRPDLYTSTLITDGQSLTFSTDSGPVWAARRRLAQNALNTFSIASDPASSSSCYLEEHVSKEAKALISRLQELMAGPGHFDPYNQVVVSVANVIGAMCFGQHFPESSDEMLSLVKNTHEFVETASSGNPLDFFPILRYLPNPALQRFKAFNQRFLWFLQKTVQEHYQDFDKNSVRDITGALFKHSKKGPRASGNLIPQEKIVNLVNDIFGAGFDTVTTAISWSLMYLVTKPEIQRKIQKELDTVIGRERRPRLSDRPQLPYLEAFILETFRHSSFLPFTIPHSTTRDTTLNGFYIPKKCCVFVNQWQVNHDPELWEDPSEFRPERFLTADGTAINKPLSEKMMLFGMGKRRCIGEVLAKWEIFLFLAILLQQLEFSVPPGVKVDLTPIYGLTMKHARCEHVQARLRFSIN

Cytochrome P450 2C9 = Cytochrome P450 2C9 (Homo sapiens, UniProt P11712); test: Inhibition of CYP2C9 (unknown origin); assay type: ADME
Cytochrome P450 2C9, sequence (P11712 whole entry): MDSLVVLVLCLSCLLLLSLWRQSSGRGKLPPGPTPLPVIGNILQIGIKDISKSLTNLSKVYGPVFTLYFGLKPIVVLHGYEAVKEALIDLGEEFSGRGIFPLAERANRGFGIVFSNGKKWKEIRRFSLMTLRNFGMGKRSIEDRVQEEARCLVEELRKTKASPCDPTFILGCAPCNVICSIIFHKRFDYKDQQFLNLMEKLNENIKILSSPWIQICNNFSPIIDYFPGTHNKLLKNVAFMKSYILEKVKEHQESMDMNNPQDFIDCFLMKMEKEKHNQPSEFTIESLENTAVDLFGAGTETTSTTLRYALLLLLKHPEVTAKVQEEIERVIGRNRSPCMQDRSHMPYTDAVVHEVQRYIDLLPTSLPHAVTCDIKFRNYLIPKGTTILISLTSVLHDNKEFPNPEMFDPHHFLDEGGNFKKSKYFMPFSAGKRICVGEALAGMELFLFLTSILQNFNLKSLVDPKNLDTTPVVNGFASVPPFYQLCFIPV

Cytochrome P450 2D6 = Cytochrome P450 2D6 (Homo sapiens, UniProt P10635); test: Inhibition of CYP2D6 (unknown origin); assay type: ADME
Cytochrome P450 2D6, sequence (P10635 whole entry): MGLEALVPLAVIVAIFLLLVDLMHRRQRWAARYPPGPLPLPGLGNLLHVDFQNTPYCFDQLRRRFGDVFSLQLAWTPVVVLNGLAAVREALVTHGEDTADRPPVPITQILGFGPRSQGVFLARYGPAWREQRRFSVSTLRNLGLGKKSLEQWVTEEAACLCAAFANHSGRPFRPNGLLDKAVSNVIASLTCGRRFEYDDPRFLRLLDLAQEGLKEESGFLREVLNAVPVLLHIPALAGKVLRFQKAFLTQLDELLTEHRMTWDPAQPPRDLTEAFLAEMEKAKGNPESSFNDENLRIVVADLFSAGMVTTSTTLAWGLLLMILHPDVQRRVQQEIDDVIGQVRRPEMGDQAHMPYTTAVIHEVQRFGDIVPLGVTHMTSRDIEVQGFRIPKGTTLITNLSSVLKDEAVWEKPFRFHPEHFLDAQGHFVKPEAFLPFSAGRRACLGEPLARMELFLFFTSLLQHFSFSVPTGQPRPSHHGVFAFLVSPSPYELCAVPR

Cytochrome P450 2C19 = Cytochrome P450 2C19 (Homo sapiens, UniProt P33261); test: Inhibition of CYP2C19 (unknown origin); assay type: ADME
Cytochrome P450 2C19, sequence (P33261 whole entry): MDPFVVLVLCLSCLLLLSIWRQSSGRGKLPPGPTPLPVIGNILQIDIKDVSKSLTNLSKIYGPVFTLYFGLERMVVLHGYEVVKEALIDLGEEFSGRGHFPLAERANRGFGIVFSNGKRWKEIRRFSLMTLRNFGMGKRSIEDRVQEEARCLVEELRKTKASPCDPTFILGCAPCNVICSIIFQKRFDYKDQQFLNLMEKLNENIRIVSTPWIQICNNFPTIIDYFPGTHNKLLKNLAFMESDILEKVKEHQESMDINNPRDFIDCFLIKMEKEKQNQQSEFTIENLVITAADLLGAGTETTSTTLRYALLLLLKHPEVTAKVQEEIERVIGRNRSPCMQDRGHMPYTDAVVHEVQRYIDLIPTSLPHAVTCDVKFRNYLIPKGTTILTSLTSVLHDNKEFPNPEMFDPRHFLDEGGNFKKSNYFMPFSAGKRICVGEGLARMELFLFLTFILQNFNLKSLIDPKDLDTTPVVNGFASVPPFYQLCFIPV

Rattus norvegicus [30] = test: Antiinflammatory activity in po dosed rat collagen-induced arthritis model assessed as reduction in clinical score measured up to day 15; assay type: functional, organism-based
Rattus norvegicus [31] = test: Antiinflammatory activity in rat collagen-induced arthritis model assessed as reduction in clinical score at 0.1 mg/kg, po measured up to day 15; assay type: functional, organism-based; set-up: dose 0.1 mg/kg
Rattus norvegicus [32] = test: Antiinflammatory activity in rat collagen-induced arthritis model assessed as reduction in clinical score at 0.3 mg/kg, po measured up to day 15; assay type: functional, organism-based; set-up: dose 0.3 mg/kg
Jak1 protein = Jak1 protein (Rattus norvegicus, UniProt Q5FVF5); test: Inhibition of rat JAK1
Jak1 protein, sequence (Q5FVF5 whole entry): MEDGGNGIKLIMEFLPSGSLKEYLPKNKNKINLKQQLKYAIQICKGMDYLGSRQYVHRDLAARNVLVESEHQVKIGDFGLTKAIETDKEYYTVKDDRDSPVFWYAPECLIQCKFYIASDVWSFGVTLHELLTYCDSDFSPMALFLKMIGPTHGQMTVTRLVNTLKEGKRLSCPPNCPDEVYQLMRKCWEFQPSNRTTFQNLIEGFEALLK

## O=C(Nc1nc2cccc(-c3ccc(CN4CCS(=O)(=O)CC4)cc3)n2n1)C1CC1 [FILGOTINIB]
[1]
  solubility kinetic: > 85 µg/mL
[2]
  fraction unbound: 0.525
[3]
  Cmax: 310 ng/mL
[4]
  Tmax: 2.2 h
[5]
  AUC(0-inf): 739 ng·h/mL
[6]
  AUC(0-inf): 1680 ng·h/mL
[7]
  half-life: 1.6 h
[8]
  half-life: 3.9 h
[9]
  Cmax: 1140 ng/mL
[10]
  Cmax: 1810 ng/mL
[11]
  Tmax: 1.5 h
[12]
  AUC(0-inf): 4100 ng·h/mL
[13]
  AUC(0-inf): 13900 ng·h/mL
[14]
  clearance: 4.17 mL/min/kg
[15]
  Vd: 1.7 L/kg
[16]
  half-life: 7.5 h
[17]
  half-life: 5.2 h
[18]
  bioavailability: 67%
[19]
  remaining at 1 h: 65%
[20]
  remaining at 1 h: 45%
[21]
  remaining at 1 h: 87%
[22]
  half-life: 3.33 h
[23]
  half-life: 3.33 h
[24]
  half-life: 3.33 h
[25]
  permeability: 3.5 ×10⁻⁶ cm/s
[26]
  Therm solubility: 243 µg/mL
[27]
  Therm solubility: 40 µg/mL
[28]
  fraction unbound: 0.711
[29]
  fraction unbound: 0.682
Cytochrome P450 1A2
  IC50: > 70 µM
Cytochrome P450 2C9
  IC50: > 70 µM
Cytochrome P450 2D6
  IC50: > 70 µM
Cytochrome P450 2C19
  IC50: > 70 µM
Rattus norvegicus [30]
  inhibition: Dose-dependent effect
Rattus norvegicus [31]
  inhibition: Active
Rattus norvegicus [32]
  inhibition: Active
Jak1 protein
  IC50: 0.029 µM
